Source: patent US20110039857A1, “PIPERIDINE AND PYROOLIDINE COMPOUNDS” (priority 2008, published 2011)
pIC50: −log10 of the molar value.

Tests used:
human orexin-1 receptor = target: T1, human orexin-1 receptor (Homo sapiens, UniProt O43613); assay: Intracellular calcium measurements (FLIPR), orexin receptor antagonistic activity; format: cell-based; settings: CHO cells expressing human orexin-1 receptor; agonist 3 nM orexin-A; read-out: OX1 IC50
T1 construct: expressed in transfected cells; host or cells: CHO (Chinese hamster ovary) cells under G418 selection
T1 sequence (O43613 1-425): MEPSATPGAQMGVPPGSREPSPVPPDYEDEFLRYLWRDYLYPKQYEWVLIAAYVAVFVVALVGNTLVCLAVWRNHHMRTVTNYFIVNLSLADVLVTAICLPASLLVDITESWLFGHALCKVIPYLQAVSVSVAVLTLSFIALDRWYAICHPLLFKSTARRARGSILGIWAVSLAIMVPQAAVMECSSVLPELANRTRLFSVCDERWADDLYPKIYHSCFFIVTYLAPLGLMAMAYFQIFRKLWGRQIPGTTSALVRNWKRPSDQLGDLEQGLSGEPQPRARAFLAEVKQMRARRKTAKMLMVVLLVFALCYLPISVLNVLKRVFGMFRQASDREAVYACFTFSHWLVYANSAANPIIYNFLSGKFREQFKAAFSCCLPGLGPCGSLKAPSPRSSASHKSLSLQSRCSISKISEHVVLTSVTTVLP
Description: (§1) The orexin receptor antagonistic activity of the compounds of formula (I) is determined in accordance with the following experimental method.
(§2) Intracellular Calcium Measurements:
(§3) Chinese hamster ovary (CHO) cells expressing the human orexin-1 receptor and the human orexin-2 receptor, respectively, are grown in culture medium (Ham F-12 with L-Glutamine) containing 300 μg/ml G418, 100 U/ml penicillin, 100 μg/ml streptomycin and 10% heat inactivated fetal calf serum (FCS). The cells are seeded at 20′000 cells/well into 384-well black clear bottom sterile plates (Greiner). The seeded plates are incubated overnight at 37° C. in 5% CO2.
(§4) Human orexin-A as an agonist is prepared as 1 mM stock solution in MeOH: water (1:1), diluted in HBSS containing 0.1% bovine serum albumin (BSA), NaHCO3: 0.375g/l and 20 mM HEPES for use in the assay at a final concentration of 3 nM.
(§5) Antagonists are prepared as 10 mM stock solution in DMSO, then diluted in 384-well plates using DMSO followed by a transfer of the dilutions into in HBSS containing 0.1% bovine serum albumin (BSA), NaHCO3: 0.375g/l and 20 mM HEPES. On the day of the assay, 50 μl of staining buffer (HBSS containing 1% FCS, 20 mM HEPES, NaHCO3: 0.375g/l, 5 mM probenecid (Sigma) and 3 μM of the fluorescent calcium indicator fluo-4 AM (1 mM stock solution in DMSO, containing 10% pluronic) is added to each well. The 384-well cell-plates are incubated for 50 min at 37° C. in 5% CO2 followed by equilibration at RT for 30-120 min before measurement.
(§6) Within the Fluorescent Imaging Plate Reader (FLIPR, Molecular Devices), antagonists are added to the plate in a volume of 10 μl/well, incubated for 10 min and finally 10 μl/well of agonist is added. Fluorescence is measured for each well at 1 second intervals, and the height of each fluorescence peak is compared to the height of the fluorescence peak induced by 3 nM orexin-A with vehicle in place of antagonist. For each antagonist, the IC50 value (the concentration of compound needed to inhibit 50% of the agonistic response) is determined.

human orexin-2 receptor = target: T2, human orexin-2 receptor (Homo sapiens, UniProt O43614); assay: as above; format: cell-based; settings: CHO cells expressing human orexin-2 receptor; agonist 3 nM orexin-A; read-out: OX2 IC50
T2 construct: expressed in transfected cells; host or cells: CHO (Chinese hamster ovary) cells under G418 selection
T2 sequence (O43614 1-444): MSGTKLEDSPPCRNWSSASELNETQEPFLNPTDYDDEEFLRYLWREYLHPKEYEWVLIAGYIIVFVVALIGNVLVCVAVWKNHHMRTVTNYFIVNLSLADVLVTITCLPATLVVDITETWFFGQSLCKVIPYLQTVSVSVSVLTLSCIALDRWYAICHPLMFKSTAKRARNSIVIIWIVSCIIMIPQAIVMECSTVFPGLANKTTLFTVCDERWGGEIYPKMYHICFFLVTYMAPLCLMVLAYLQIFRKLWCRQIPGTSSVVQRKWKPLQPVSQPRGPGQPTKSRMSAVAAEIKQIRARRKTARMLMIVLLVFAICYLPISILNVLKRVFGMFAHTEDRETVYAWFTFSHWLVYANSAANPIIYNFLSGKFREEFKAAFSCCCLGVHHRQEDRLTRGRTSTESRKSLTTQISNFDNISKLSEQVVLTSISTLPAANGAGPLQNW
Description: as §1, §2, §3, §4, §5, §6

Compound	pIC50 (human orexin-1 receptor)	pIC50 (human orexin-2 receptor)
Cc1ccc(-c2ccccc2C(=O)N2CCC[C@@H](Nc3nccc(C(F)(F)F)n3)C2)cc1C [Example 1, (R)-(3′,4′-Dimethyl-biphenyl-2-yl)-[3-(4-trifluoromethyl-pyrimidin-2-ylamino)-piperidin-1-yl]-methanone]	7.24	7.37
COc1cc(OC)nc(N[C@@H]2CCCN(C(=O)c3ccccc3-c3ccc(C)c(C)c3)C2)n1 [Example 2, (R)-[3-(4,6-Dimethoxy-pyrimidin-2-ylamino)-piperidin-1-yl]-(3′,4′-dimethyl-biphenyl-2-yl)-methanone]	7.60	8.00
Cc1ccc(-c2ccccc2C(=O)N2CCC[C@@H](Nc3cnc4ccccc4n3)C2)cc1C [Example 6, (R)-(3′,4′-Dimethyl-biphenyl-2-yl)-[3-(quinoxalin-2-ylamino)-piperidin-1-yl]-methanone]	7.89	7.96
Cc1cccc(-c2ccccc2C(=O)N2CCC[C@@H](NC(=O)c3nn(C)c4ccccc34)C2)c1 [Example 34, (R)-1-Methyl-1H-indazole-3-carboxylic acid[1-(3′-methyl-biphenyl-2-carbonyl)-piperidin-3-yl]-amide]	7.48	7.82
Cc1ccc(-c2ccccc2C(=O)N2CCC[C@@H](NC(=O)c3cn(C)c4ccccc34)C2)cc1C [Example 41, (R)-1-Methyl-1H-indole-3-carboxylic acid[1-(3′,4′-dimethyl-biphenyl-2-carbonyl)-piperidin-3-yl]-amide]	7.49	7.60
